The numbers were not newly measured in US12521399B2, “Compound as voltage-gated sodium channel inhibitor” (Guangzhou Fermion Technology Co., Ltd., priority 2022, dated 2026), which cites them from elsewhere.

The structures appear in SMILES notation.

Data set [1] addresses Nav1.3 (Homo sapiens, UniProt Q9NY46). As to conditions: read-out: TTX IC50 (nm); cited from earlier work.
Data set [2] concerns the target Nav1.8 (Homo sapiens, UniProt Q9Y5Y9). As to conditions: read-out: TTX IC50 (nm); cited from earlier work.

Nav1.3, sequence (Q9NY46 whole entry, looked up): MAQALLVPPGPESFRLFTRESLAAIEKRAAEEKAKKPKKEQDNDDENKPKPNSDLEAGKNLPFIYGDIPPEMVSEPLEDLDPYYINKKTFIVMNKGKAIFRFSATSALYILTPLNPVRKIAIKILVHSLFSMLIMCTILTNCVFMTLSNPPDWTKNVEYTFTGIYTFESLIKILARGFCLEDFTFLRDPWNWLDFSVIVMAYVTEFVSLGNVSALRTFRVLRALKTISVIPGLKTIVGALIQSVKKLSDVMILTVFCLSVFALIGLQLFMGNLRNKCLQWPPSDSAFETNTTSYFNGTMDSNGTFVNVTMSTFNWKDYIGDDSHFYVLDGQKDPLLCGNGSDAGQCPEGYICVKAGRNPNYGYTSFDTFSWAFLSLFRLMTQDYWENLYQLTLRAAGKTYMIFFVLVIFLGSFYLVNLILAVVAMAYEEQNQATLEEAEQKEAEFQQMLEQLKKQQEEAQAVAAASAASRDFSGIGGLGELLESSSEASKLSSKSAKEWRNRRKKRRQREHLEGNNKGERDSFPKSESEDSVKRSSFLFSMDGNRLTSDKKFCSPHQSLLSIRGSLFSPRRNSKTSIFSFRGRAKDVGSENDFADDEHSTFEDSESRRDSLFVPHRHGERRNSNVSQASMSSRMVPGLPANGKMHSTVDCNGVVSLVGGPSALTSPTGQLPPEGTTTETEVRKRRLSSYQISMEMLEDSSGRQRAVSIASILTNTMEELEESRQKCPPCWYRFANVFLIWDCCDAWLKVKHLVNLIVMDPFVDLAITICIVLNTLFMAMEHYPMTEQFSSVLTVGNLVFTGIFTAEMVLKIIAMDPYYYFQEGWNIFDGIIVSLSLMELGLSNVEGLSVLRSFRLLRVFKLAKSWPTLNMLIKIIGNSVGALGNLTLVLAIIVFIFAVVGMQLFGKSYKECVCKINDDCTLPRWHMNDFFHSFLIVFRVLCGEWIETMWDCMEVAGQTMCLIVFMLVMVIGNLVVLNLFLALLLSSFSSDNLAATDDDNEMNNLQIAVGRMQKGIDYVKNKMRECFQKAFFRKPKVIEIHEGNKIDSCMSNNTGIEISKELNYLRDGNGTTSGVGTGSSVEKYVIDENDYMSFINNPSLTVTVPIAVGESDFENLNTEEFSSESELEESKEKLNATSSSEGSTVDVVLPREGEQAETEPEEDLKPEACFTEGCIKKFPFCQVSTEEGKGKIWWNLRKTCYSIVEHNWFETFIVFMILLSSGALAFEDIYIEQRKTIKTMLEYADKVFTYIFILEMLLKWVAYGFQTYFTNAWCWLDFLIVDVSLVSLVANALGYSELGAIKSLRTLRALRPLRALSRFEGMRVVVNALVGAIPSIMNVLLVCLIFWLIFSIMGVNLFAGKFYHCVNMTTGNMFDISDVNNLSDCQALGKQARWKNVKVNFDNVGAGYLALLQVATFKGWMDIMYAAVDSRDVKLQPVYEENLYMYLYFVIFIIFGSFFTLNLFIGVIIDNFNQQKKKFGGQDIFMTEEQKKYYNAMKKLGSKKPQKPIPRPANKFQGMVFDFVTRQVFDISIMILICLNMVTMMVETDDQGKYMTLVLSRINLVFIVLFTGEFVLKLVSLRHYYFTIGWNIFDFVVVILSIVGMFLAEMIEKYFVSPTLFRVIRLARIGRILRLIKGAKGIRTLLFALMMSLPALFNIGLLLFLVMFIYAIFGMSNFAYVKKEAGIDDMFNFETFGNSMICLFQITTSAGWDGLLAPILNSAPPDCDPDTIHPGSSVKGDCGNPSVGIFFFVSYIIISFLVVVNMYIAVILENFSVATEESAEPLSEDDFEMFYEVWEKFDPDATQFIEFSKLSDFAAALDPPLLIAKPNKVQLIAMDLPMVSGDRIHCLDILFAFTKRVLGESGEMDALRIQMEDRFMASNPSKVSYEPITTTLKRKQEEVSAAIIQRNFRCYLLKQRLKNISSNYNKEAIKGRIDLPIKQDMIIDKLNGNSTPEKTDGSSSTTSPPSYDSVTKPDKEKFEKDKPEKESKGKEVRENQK
Nav1.8, sequence (Q9Y5Y9 whole entry, looked up): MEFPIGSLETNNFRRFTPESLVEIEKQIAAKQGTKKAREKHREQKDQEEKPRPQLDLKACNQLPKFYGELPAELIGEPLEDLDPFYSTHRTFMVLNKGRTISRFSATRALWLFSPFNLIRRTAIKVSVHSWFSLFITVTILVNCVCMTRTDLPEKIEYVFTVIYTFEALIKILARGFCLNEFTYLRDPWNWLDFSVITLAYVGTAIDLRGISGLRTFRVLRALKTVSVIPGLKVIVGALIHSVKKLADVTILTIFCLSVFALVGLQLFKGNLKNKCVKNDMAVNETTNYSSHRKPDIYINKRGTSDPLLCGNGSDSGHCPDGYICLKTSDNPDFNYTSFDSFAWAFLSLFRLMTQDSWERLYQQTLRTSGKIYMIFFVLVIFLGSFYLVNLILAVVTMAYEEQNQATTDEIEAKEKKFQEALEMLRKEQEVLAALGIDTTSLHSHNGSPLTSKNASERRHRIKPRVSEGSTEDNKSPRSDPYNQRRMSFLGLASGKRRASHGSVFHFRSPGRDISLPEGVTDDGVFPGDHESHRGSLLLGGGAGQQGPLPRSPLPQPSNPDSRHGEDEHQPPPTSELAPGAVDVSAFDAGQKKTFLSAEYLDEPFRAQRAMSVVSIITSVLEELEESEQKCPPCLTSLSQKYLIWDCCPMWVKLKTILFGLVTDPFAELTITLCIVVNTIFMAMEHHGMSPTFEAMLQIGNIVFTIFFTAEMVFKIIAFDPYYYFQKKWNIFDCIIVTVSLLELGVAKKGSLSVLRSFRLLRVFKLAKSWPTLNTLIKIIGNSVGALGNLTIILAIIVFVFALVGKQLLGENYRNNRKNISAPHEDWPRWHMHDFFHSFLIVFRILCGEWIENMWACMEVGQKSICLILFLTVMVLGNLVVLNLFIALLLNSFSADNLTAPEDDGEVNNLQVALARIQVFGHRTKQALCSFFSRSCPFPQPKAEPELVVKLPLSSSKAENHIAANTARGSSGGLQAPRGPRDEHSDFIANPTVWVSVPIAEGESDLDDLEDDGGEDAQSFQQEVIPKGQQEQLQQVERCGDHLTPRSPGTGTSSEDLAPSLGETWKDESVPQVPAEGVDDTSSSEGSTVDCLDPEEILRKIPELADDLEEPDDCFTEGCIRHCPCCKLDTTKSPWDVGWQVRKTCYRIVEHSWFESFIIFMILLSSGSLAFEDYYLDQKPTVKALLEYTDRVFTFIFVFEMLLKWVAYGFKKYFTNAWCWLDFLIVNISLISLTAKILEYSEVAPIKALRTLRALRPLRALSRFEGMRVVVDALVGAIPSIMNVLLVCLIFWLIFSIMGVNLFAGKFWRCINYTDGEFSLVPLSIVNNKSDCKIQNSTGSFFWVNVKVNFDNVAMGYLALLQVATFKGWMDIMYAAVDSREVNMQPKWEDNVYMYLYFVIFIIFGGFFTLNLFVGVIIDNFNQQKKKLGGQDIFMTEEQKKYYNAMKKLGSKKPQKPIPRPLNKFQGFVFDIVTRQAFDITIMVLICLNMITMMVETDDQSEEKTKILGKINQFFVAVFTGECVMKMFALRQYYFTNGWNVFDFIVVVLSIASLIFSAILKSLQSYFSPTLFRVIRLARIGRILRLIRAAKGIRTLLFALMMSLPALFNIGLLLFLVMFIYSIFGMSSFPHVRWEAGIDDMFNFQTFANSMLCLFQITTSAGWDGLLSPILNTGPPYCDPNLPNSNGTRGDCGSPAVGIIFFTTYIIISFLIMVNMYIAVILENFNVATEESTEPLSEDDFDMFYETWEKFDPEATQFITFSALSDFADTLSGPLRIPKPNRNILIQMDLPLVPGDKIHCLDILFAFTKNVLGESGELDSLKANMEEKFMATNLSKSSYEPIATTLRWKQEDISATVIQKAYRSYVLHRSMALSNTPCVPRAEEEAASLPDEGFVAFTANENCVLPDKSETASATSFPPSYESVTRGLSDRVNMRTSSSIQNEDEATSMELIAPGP

Turning to `NC1=N[C@H](O)[C@H]2[C@H]3O[C@]4(O)O[C@@H]([C@@H](O)[C@@]2(N1)[C@@H]4O)[C@]3(O)CO` [TTX, tetrodotoxin], the values for the IC50 in data set [1] and in data set [2] were 0.004 µM and 31 µM, respectively.

As usually defined, the IC50 is the concentration that gives 50% inhibition.
